Here are results for two compounds from patent US9034398B2, “Traditional Chinese drug comprising Danshen extracts and Sanqi extracts and use thereof” (TASLY Pharmaceutical Group Co., LTD., priority 2009, dated 2015).

This assay concerns rat myocardial I/R model. Kind of assay: Diameters of the venules of heart coronary vessels after myocardial I/R. It counts as in vivo. The settings on record: 5 mg/kg BW/h intravenous drip; entire observation; FIG. 1. The protocol:
The rats were anesthetized by intramuscularly injecting 20 wt % urethane (1.25 g/kg) and fixed in the supine position. Neck skin was incised and anterior cervical muscles were separated to expose the trachea. Tracheal intubation was performed. Another end of the intubation was attached to a Small Animal Ventilator (ALC-V8, Shanghai Aoteshai Biology Science and Technology Limited Company, Shanghai, China) so as to carry out pressure breathing under the following conditions: a respiratory ratio of 1:1, a respiratory frequency of 75 times/min and a tidal volume of 12 mL/kg. The rectal temperature, measured with YSI REF 401 (Yellow Spring, Ohio, USA), was maintained at 37 37.5° C. by using a thermal blanket. […] Heart coronary vessel microcirculation had been recorded by a CD video recorder ([…], US). […] The diameter of the venules and RBC velocity under a same visual field were recorded before ischemia, 30 min after ischemia, 30 min after reperfusion and 60 min after reperfusion. Recordings were replayed at 25 frames·s^-1, diameters of the arterioles and the venules as well as RBC velocities were measured with Image-Pro Plus 5.0 software. RBC velocities in the rat's heart arterioles and venules were expressed as “mm/s”, and the diameters of the rat's heart arterioles and venules were expressed as “μm”.

As to `O=C(O)C(O)Cc1ccc(O)c(O)c1` (centres unmarked) [Danshensu, (3,4-dihydroxyphenyl)lactic acid], the “change in the diameters of the venules of the heart coronary vessels” value was “no significant change”.

On to `CC(C)=CCC[C@](C)(O[C@@H]1O[C@H](CO)[C@@H](O)[C@H](O)[C@H]1O)[C@H]1CC[C@]2(C)[C@@H]1[C@H](O)C[C@@H]1[C@@]3(C)CC[C@H](O)C(C)(C)[C@@H]3[C@@H](O[C@@H]3O[C@H](CO)[C@@H](O)[C@H](O)[C@H]3O[C@@H]3OC[C@@H](O)[C@H](O)[C@H]3O)C[C@]12C` [Notoginsenoside R1], for which the “change in the diameters of the venules of the heart coronary vessels” value is “no significant change”.
